Here are results for two compounds from patent US20120149647A1, “Methods for Assessing the Efficacy of Gemcitabine or Ara-C Treatment of Cancer Using Human Antigen R Levels” (priority 2009, published 2012).

Each structure is given as a SMILES string. Entries after “also recorded” stand apart in the source; their conditions may differ.

Test [1] has as its system pancreatic cancer cell lines MiaPaca2, PL-5, and Hs766t. The test can be described thus: Drug sensitivity assay (PicoGreen cell survival), HuR-overexpressing vs control lines. Format: cell-based. Particulars: PicoGreen cell survival after 5-7 days of drug, HuR vs empty vector/control cells. An excerpt: HuR cDNA sequence was cloned into the pcDNA 3.1. Zeo vector (Invitrogen) for stable transfection of pancreatic cancer cell lines MiaPaca2, PL-5, and Hs766t. Pooled cells remained under selection media containing Zeocin (Invitrogen) for several months after transfection. Mia.HuR, PL5.HuR, and Hs766t. HuR denote link overexpressing lines; Mia.EV, PL5.EV, and Hs766t denote empty vector or control lines. HuR and control siRNA sequences and transfection conditions were as described.
Mia.HuR, Mia.EV, Hs766t.HUR, Hs766t, and PL5.HuR, PL5.EV cells were seeded (1000 cells/well) in 96-well plates and treated with Etoposide, 5-Fluorouracil, Cis-platin, Staurosporine, Nocodazole, Colcemid, Ara-C (Sigma), and GEM (Gemzar, Eli-Lilly, Indianapolis, Ind.) for 6-7 days. After treatment, cells were washed with PBS and lysed with 100 μL of water/well; cell viability was quantified by staining of double-stranded DNA with QuantiT™ PicoGreen (Invitrogen) and analyzed with a TECAN SpectraFluor.

Test [2] concerns Mia.EV and Mia.HuR cell lines. In words: Cell cycle analysis and apoptosis assay (flow cytometry). The class given is cell-based. Conditions: 0.03 μM GEM, 48 h. How it is done:
Mia.EV and Mia.HuR cell lines were either left untreated or treated with 0.03 μM GEM for 48 h. For cell cycle analysis, cells were then fixed in 100% ethanol, and stained with a propidium iodide solution containing RNAse A (Sigma Aldrich). For apoptosis assays, cells were resuspended at 10^6 cells/mL and incubated in Annexin V and Propidium Iodide, following the manufacturers' protocol (FITC Annexin V, BD Pharmigen). Both assays were analyzed by flow cytometry.

In test [3] the test system is HuR in MiaPaCa2 cells. In words: HuR levels and localization by immunoblot and immunofluorescence. Format: cell-based. Conditions: parental MiaPaCa2 cells, GEM treatment. How it is done: Cells were plated on LabTek II™ Chamber slides (Fisher Scientific) and fixed in 3% paraformaldehyde (20 min, RT). Cells were washed with PBS and permeabilized using 0.5% Triton X-100/1% normal goat serum (Vector Laboratories) in PBS (15 min). After washes in 1% goat serum/PBS, cells were incubated (1:50 dilution, 1 hr, RT) with mouse anti-HuR (Santa Cruz) or anti-deoxycytidine kinase (dCK, Abnova) primary antibodies. After washes in PBS, cells were incubated for 1 hr with goat anti-mouse secondary antibody (1:400, Alexa Fluor 647, Molecular Probes). Nuclei were stained with DAPI and cells were evaluated under a Zeiss LSM-510 Confocal Laser Microscope.
Whole-cell, cytoplasmic, and nuclear lysates were prepared as described (Kuwano Y, et al. Mol Cell Biol 2008; 28:4562-75), and protein was size-fractionated by SDS-PAGE (10% acrylamide). Membranes were blocked for 1 h in 5% Milk/TBS-T and incubated overnight with monoclonal antibodies (Santa Cruz) recognizing HuR, dCK, the cytoplasmic marker α-Tubulin, or the nuclear marker hnRNP. Membranes were washed with TBS-T and incubated with secondary antibodies; and the resulting signals were visualized by chemiluminescence (Millipore). Total protein was visualized with Fast Green (USB).

In test [4] the test system is HuR association with dCK mRNA in MiaPaCa2 cells. The test can be described thus: RNP IP assay of HuR association with dCK mRNA; dCK protein and mRNA levels. Conditions: GEM treatment. Format: cell-based. As for the experimental part: MiaPaCa2 cells were treated with 4 μM GEM and collected 48 hours later. For biotin pulldown analysis (Kuwano Y, et al. Mol Cell Biol 2008; […]), cytoplasmic extracts were isolated using, the NE-PER® Nuclear and Cytoplasmic Extraction Reagents Kit (Pierce Biotechnology) Probes for biotin pull-down analysis were synthesized as described (Kuwano Y, et al. Mol Cell Biol 2008; […] using the following PCR primers (sense and antisense, respectively) containing the T7 RNA polymerase promoter sequence […] (T7) (SEQ ID NO: 1): (T7)[…] (SEQ ID NO: 2) and […] (SEQ ID NO: 3) for dCK 3′UTR; (T7)[…] (SEQ ID NO: 4) and […] (SEQ ID NO: 5) for GAPD 3′UTR (Casolaro V, et al. J Allergy Clin Immunol 2008; 121:853-9 e4) (see supplemental figure for depiction of UTR positions). Biotinylated probes were synthesized using the MAXIscript T7 kit (Ambion) and Biotinylated dCTP (Enzo Life Sciences). For immunoprecipitation of endogenous RNA-protein complexes (RNP IP) from cytoplasmic (450 μg) extracts, reactions were carried out as described (Kuwano Y, et al. Mol Cell Biol 2008; 28:4562-75), using protein A Sepharose beads (Sigma) that were precoated with 30 μg of either mouse immunoglobulin G1 (IgG1; BD Biosciences), or anti-HuR antibodies. […] GAPDH and dCK transcripts were quantified by real-time PCR analysis using each specific primers: […] […]

Test [5] has as its system pancreatic ductal adenocarcinoma. The test can be described thus: Overall survival of resected PDA patients receiving GEM, stratified by cytoplasmic HuR. Format: in vivo. Conditions: for adjusted hazard ratio of low to high HuR: adjusted for age, sex, Xeloda use and radiation therapy. How it is done: HuR immunostaining was performed on 32 resected PDA specimens from the Thomas Jefferson University pathology archives after IRB approval. All patients received GEM, alone or in combination with XELODA® (Capecitabine) (2 patients), radiation therapy (8 patients) or both (2 patients). The experienced pancreatic pathologist (A.K.W.) reviewed all cases in a blinded fashion and classified the tumors as well differentiated (n=6), moderately differentiated (n=22), or poorly differentiated […]. For each case, representative sections were selected for immunohistochemical analysis of HuR cytoplasmic and nuclear staining patterns, which were scored using the following scale: 0 for no staining, 1 for weak and/or focal (<10% of the cells) staining; 2 for moderate or strong, staining (10-50% of the cells); and 3 for moderate or strong staining (>50% of the cells). Combined scores 0 and 1 represented low expression, while combined scores 2 and 3 represented high expression.

The mark [6] stands for this setting: patients receiving GEM, listed as gemcitabine.

As to `Nc1ccn(C2OC(CO)C(O)C2(F)F)c(=O)n1` (stereo not drawn) [GEM, 4-amino-1-[3,3-difluoro-4-hydroxy-5-(hydroxymethyl)tetrahydrofuran-2-yl]-1H-pyrimidin-2-one], in test [1], the “sensitivity of HuR-overexpressing cell lines compared with control lines” value (“sensitivity … compared with control lines” below) is “more sensitive”. Also, the “sensitivity … compared with control lines” value in test [1] (listed as gemcitabine) is recorded as “strikingly hypersensitive”. Moreover, in test [2], the “apoptosis of HuR overexpressing cells compared to control cells” value is “increased apoptosis” and the “cell cycle distribution of HuR overexpressing cells compared to control cells” value is “selective enrichment in the S-phase”. Moreover, in test [3], the “cytoplasmic HuR levels” value was “significantly increased” and the “whole-cell HuR levels” value is “did not alter”. The “overall dCK protein or mRNA levels” value in test [4] is given as “did not alter”. Further, the “HuR's association with dCK mRNA” value in test [4] (RNP IP) is recorded as “significantly increased”. In test [5] (patients receiving GEM), the “hazard ratio of low to high HuR, univariate Cox regression” value amounted to 4.48 and the “adjusted hazard ratio of low to high HuR” value is reported as 7.34. Further, in test [5] (setting [6]), the “adjusted hazard ratio of low to high HuR” value came out at 5.04; the “hazard ratio of low to high HuR, univariate Cox regression” value was 3.36; the “increase in risk of death, low vs high HuR levels” value was 5 fold. Also, the “median overall survival time for patients on GEM” value in test [5] (resected PDA patients, GEM alone or combined) worked out at 619 days.
`Nc1ccn([C@@H]2O[C@H](CO)[C@@H](O)[C@@H]2O)c(=O)n1` [Ara-C, Cytarabine]: the “sensitivity … compared with control lines” value in test [1] is listed as “selectively more sensitive; also recorded: hypersensitive”.
